From patent US20240199613A1 (TAKEDA PHARMACEUTICAL COMPANY LIMITED, priority 2021, published 2024)

Molecular target: human activated kallikrein enzyme (Homo sapiens, UniProt P03952)
Assay: Inhibition of activated plasma kallikrein, fluorogenic peptide substrate (PFR-AMC) assay, 500 pM enzyme format
Format: biochemical
Details: 500 pM activated kallikrein, 300 uM PFR-AMC, 30 min preincubation, 10 min reaction, room temperature; read-out: Primary Dose Response Assay: Average EC50
Procedure: Compounds were evaluated for inhibition of the human activated kallikrein enzyme in two formats of an assay employing a fluorogenic peptide substrate. In one assay format, the concentrations of reagents were as follows: 20 mM Tris pH 7.5, 1 mM EDTA, 150 mM sodium chloride, 0.1% PEG-400, 0.1% Triton X-100, 500 pM activated kallikrein enzyme, 300 uM Pro-Phe-Arg-7-amido-4-methylcoumarin (PFR-AMC) substrate. Prior to reaction initiation with substrate, enzyme and inhibitors were preincubated for 30 min at room temperature. After initiation with substrate, reactions were incubated for 10 min at room temperature and fluorescence emission at 460 nm from 380 nm excitation measured with a microplate reader. In another assay format, the concentrations of reagents were as follows: 20 mM Tris pH 7.5, 1 mM EDTA, 150 mM sodium chloride, 0.1% PEG-400, 0.1% Triton X-100, 5 pM activated kallikrein enzyme, 300 uM PFR-AMC substrate. Prior to reaction initiation with substrate, enzyme and inhibitors were preincubated for 30 min at room temperature. After initiation with substrate, reactions were incubated for 18 hr at room temperature and fluorescence emission at 460 nm from 380 nm excitation measured with a microplate reader.
Table 6 provides the results of the assay in the format with 500 pM activated kallikrein assay.

human activated kallikrein enzyme, sequence (P03952 391-638 limits assumed): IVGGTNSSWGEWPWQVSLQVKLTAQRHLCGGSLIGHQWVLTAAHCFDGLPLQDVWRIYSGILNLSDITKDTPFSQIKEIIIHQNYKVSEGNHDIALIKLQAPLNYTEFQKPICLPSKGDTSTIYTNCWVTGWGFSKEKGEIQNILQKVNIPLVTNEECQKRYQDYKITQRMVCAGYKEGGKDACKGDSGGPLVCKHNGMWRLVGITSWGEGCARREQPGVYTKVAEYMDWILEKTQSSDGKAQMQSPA
human activated kallikrein enzyme, sequence (P03952 20-390 partner limits assumed): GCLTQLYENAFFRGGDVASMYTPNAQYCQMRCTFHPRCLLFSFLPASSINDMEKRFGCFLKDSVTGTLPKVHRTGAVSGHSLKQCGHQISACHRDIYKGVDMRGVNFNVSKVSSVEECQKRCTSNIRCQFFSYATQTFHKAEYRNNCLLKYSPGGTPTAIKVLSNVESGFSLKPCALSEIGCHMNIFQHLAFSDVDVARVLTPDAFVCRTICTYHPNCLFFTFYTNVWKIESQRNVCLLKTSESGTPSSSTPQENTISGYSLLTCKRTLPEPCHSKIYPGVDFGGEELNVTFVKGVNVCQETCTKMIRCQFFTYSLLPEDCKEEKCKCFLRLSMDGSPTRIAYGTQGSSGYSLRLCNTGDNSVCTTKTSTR

Row | Structure (SMILES) | EC50 [nM]
1 | COc1cc([C@H]2C[C@@H]2c2cccc(Cl)c2)nc2cc(NCc3cn4cc(C5CC5)cc(N5CCCC5=O)c4n3)ccc12 (racemic) [Example 4, rac-1-(2-(((2-((7S*,2S*)-2-(3-chlorophenyl)cyclopropyl)-4-methoxyquinolin-7-yl)amino)methyl)-6-cyclopropylimidazo[1,2-a]pyridin-8-yl)pyrrolidin-2-one] | 10 to 100
2 | COc1cc([C@H]2C[C@@H]2c2nccc(C)n2)nc2cc(N3C[C@@H](O)C[C@@H]3c3cn4cc(C5CC5)ccc4n3)ccc12 (relative stereo) [Example 53, (3S,5R)-5-(6-cyclopropylimidazo[1,2-a]pyridin-2-yl)-1-(4-methoxy-2-(rac-(1S*,2S*)-2-(4-methylpyrimidin-2-yl)cyclopropyl)quinolin-7-yl)pyrrolidin-3-ol] | 1 to 10
3 | COc1cc(OCc2cn3cc(C4CC4)cc(N4CC(=O)N(C)C4=O)c3n2)cc2nc([C@H]3C[C@@H]3c3nccc(C)n3)ccc12 (racemic) [Example 102, rac-1-(6-cyclopropyl-2-(((5-methoxy-2-((1S*,2S*)-2-(4-methylpyrimidin-2-yl)cyclopropyl)quinolin-7-yl)oxy)methyl)imidazo[1,2-a]pyridin-8-yl)-3-methylimidazolidine-2,4-dione] | 10 to 100
4 | Cc1ccnc([C@H]2C[C@@H]2c2ncc3cnc(NCc4cn5cc(C6CC6)cc(N6CC(=O)N(C)C6=O)c5n4)cc3n2)n1 (racemic) [Example 63, rac-1-(6-cyclopropyl-2-(((2-((1S*,2S*)-2-(4-methylpyrimidin-2-yl)cyclopropyl)pyrido[4,3-d]pyrimidin-7-yl)amino)methyl)imidazo[1,2-a]pyridin-8-yl)-3-methylimidazolidine-2,4-dione] | 100 to 6500
5 | COc1cc([C@H]2C[C@@H]2c2cccc(Cl)c2)nc2cc(NCc3cn4cc(C5CC5)cc(N5CC(=O)N(C)C5=O)c4n3)ncc12 [Example 18, 1-(2-(((2-((1S,2S)-2-(3-chlorophenyl)cyclopropyl)-4-methoxy-1,6-naphthyridin-7-yl)amino)methyl)-6-cyclopropylimidazo[1,2-a]pyridin-8-yl)-3-methylimidazolidine-2,4-dione] | 10 to 100
6 | O=c1[nH]c([C@H]2C[C@@H]2c2cccc(Cl)c2)nc2cc(NCc3cn4cc(C5CC5)ccc4n3)ncc12 [Example 2, 2-((1S,2S)-2-(3-chlorophenyl)cyclopropyl)-7-(((6-cyclopropylimidazo[1,2-a]pyridin-2-yl)methyl)amino)pyrido[4,3-d]pyrimidin-4 (3H)-one] | 10 to 100
7 | Clc1cccc([C@H]2C[C@@H]2c2nc3ncncc3n2Cc2cn3cc(C4CC4)ccc3n2)c1 [Example 44, 8-((1S,2S)-2-(3-chlorophenyl)cyclopropyl)-7-((6-cyclopropylimidazo[1,2-a]pyridin-2-yl)methyl)-7H-purine] | > 6500
8 | Cc1ccnc([C@H]2C[C@@H]2c2ccc3ncn(Cc4cn5cc(C6CC6)cc(N6CC(=O)N(C)C6=O)c5n4)c3n2)n1 (racemic) [Example 71, rac-1-(6-cyclopropyl-2-((5-((1S*,2S*)-2-(4-methylpyrimidin-2-yl)cyclopropyl)-3H-imidazo[4,5-b]pyridin-3-yl)methyl)imidazo[1,2-a]pyridin-8-yl)-3-methylimidazolidine-2,4-dione] | > 6500
9 | O[C@H]1C[C@H](c2cn3cc(C4CC4)ccc3n2)N(c2cc3[nH]c([C@H]4C[C@@H]4c4cccc(Cl)c4)c(F)c3cn2)C1 (relative stereo) [Example 56, rac-(3S,5R)-1-(2-((1S*,2S*)-2-(3-chlorophenyl)cyclopropyl)-3-fluoro-1H-pyrrolo[3,2-c]pyridin-6-yl)-5-(6-cyclopropylimidazo[1,2-a]pyridin-2-yl)pyrrolidin-3-ol] | > 6500
10 | Cc1ccnc([C@H]2C[C@@H]2c2cnc3ccc(NCc4cn5cc(C6CC6)cc(N6CC(=O)N(C)C6=O)c5n4)cc3c2)n1 (racemic) [Example 24, rac-1-(6-cyclopropyl-2-(((3-((1S*,2S*)-2-(4-methylpyrimidin-2-yl)cyclopropyl)quinolin-6-yl)amino)methyl)imidazo[1,2-a]pyridin-8-yl)-3-methylimidazolidine-2,4-dione] | 100 to 6500
11 | COc1cc([C@H]2C[C@@H]2c2cccc(Cl)c2)nc2cc(N(Cc3cn4cc(C5CC5)ccc4n3)C(=O)OC(C)(C)C)ccc12 (racemic) [Example 47, rac-tert-butyl (2-((1S*,2S*)-2-(3-chlorophenyl)cyclopropyl)-4-methoxyquinolin-7-yl)((6-cyclopropylimidazo[1,2-a]pyridin-2-yl)methyl)carbamate] | > 6500
12 | Cc1ccnc([C@H]2C[C@@H]2c2ccc3ncc(NCc4cn5cc(C6CC6)cc(N6CC(=O)N(C)C6=O)c5n4)cc3c2)n1 (racemic) [Example 16, rac-1-(6-Cyclopropyl-2-(((6-((1S*,2S*)-2-(4-methylpyrimidin-2-yl)cyclopropyl)quinolin-3-yl)amino)methyl)imidazo[1,2-a]pyridin-8-yl)-3-methylimidazolidine-2,4-dione] | 100 to 6500
13 | O=c1cc(C2C[C@@H]2c2cccc(Cl)c2)[nH]c2cc(NCc3cn4cc(C5CC5)ccc4n3)ccc12 (mixture of isomers) [Example 49, rac-2-((1S*,2S*)-2-(3-chlorophenyl)cyclopropyl)-7-(((6-cyclopropylimidazo[1,2-a]pyridin-2-yl)methyl)amino)quinolin-4 (1H)-one] | 1 to 10

The remaining lines, values ahead:

Row | EC50 [nM] | Structure (SMILES)
14 | 100 to 6500 | Cc1ccnc([C@H]2C[C@@H]2C2=NS(=O)(=O)c3ccc(NCc4cn5cc(C6CC6)ccc5n4)cc3N2C)n1 [Example 94, 6-(((6-cyclopropylimidazo[1,2-a]pyridin-2-yl)methyl)amino)-4-methyl-3-((1S,2S)-2-(4-methylpyrimidin-2-yl)cyclopropyl)-4H-benzo[e][1,2,4]thiadiazine 1,1-dioxide]
15 | ≤ 1 | COCc1cc([C@H]2C[C@@H]2c2nccc(C)n2)nc2cc(NCc3cn4cc(C5CC5)cc(N5CC(=O)N(C)C5=O)c4n3)ccc12 (racemic) [Example 76, rac-1-(6-cyclopropyl-2-(((4-(methoxymethyl)-2-((1S*,2S*)-2-(4-methylpyrimidin-2-yl)cyclopropyl)quinolin-7-yl)amino)methyl)imidazo[1,2-a]pyridin-8-yl)-3-methylimidazolidine-2,4-dione]
16 | 10 to 100 | Cc1ccnc([C@H]2C[C@@H]2c2cc(C#N)c3ccc(NCc4cn5cc(C6CC6)cc(N6CC(=O)N(C)C6=O)c5n4)cc3n2)n1 (racemic) [Example 73, rac-7-(((6-cyclopropyl-8-(3-methyl-2,4-dioxoimidazolidin-1-yl)imidazo[1,2-a]pyridin-2-yl)methyl)amino)-2-((1S*,2S*)-2-(4-methylpyrimidin-2-yl)cyclopropyl)quinoline-4-carbonitrile]
17 | 10 to 100 | COc1cc([C@H]2C[C@@H]2c2cccc(Cl)c2)nc2cc(NCc3cn4cc(C5CC5)ccc4n3)ccc12 (racemic) [Example 48, rac-2-((1S*,2S*)-2-(3-chlorophenyl)cyclopropyl)-N-((6-cyclopropylimidazo[1,2-a]pyridin-2-yl)methyl)-4-methoxyquinolin-7-amine]
18 | > 6500 | Clc1cccc([C@H]2C[C@@H]2c2nc3ccc(NCc4cn5cc(C6CC6)ccc5n4)cc3[nH]2)c1 [Example 45, 2-((1S,2S)-2-(3-chlorophenyl)cyclopropyl)-N-((6-cyclopropylimidazo[1,2-a]pyridin-2-yl)methyl)-1H-benzo[d]imidazol-6-amine]
19 | 1 to 10 | Cc1ccnc([C@H]2C[C@@H]2c2ccc3ccc(NCc4cn5cc(C6CC6)ccc5n4)cc3n2)n1 (racemic) [Example 19, rac-N-((6-cyclopropylimidazo[1,2-a]pyridin-2-yl)methyl)-2-((1S*,2S*)-2-(4-methylpyrimidin-2-yl)cyclopropyl)quinolin-7-amine]
20 | 1 to 10 | Cc1ccnc([C@H]2C[C@@H]2c2ccc3ccc(NCc4cn5cc(C6CC6)cc(N6C(=O)N(C)C(=O)C6C6(O)COC6)c5n4)cc3n2)n1 (relative stereo) [Example 90, rac-1-(6-cyclopropyl-2-(((2-((1S*,2S*)-2-(4-methylpyrimidin-2-yl)cyclopropyl)quinolin-7-yl)amino)methyl)imidazo[1,2-a]pyridin-8-yl)-5-(3-hydroxyoxetan-3-yl)-3-methylimidazolidine-2,4-dione]
21 | 1 to 10 | Cc1ccnc([C@H]2C[C@@H]2c2nc3cc(NCc4cn5cc(C6CC6)ccc5n4)ccc3c(=O)[nH]2)n1 (relative stereo) [Example 3]
22 | 10 to 100 | Cc1ccnc([C@@H]2C[C@H]2c2ccc3ccc(NCc4cn5cc(C6CC6)cc(N6CC(=O)N(C)C6=O)c5n4)cc3n2)n1 (single isomer, unassigned) [Example 58]
23 | 100 to 6500 | Cc1ccnc([C@H]2C[C@@H]2c2cnc3ccc(NCc4cn5cc(C6CC6)cc(N6CC(=O)N(C)C6=O)c5n4)cc3n2)n1 (racemic) [Example 62, rac-1-(6-cyclopropyl-2-(((3-((1S*,2S*)-2-(4-methylpyrimidin-2-yl)cyclopropyl)quinoxalin-6-yl)amino)methyl)imidazo[1,2-a]pyridin-8-yl)-3-methylimidazolidine-2,4-dione]
